Assay results: DBAASP
Values after ≈ are worked out from the molar mass of the structure shown. Values joined by “and” are separate entries in the source; they are usually repeats but may differ in a detail not shown here. Identical values can stand only once. Each block holds one compound with its values, some of them ahead of it.

How the values were obtained:
Assay in all cases: ≥ marks a high value that may be exact or a test limit, other limits are often not marked, values filed in µg/mL are converted to µM
[1] = test system: Escherichia coli K12 MG1655
[2] = test system: Salmonella enterica subsp. enterica serovar Infantis
Escherichia coli JJ2489 = test system: Escherichia coli JJ2489
Escherichia coli = test system: Escherichia coli
[3] = test system: Escherichia coli JW2778 ΔygdD
[4] = test system: Escherichia coli JW0368 ΔsbmA
[5] = test system: Salmonella enterica subsp. enterica serovar Enteritidis MH91989
[6] = test system: Salmonella enterica serovar Tennessee
[7] = test system: Salmonella typhimurium SL1344
Escherichia coli BW25113 = test system: Escherichia coli BW25113
[8] = test system: Salmonella enterica subsp. enterica serovar Newport
Escherichia coli MC1041 = test system: Escherichia coli MC1041
Escherichia coli J2210 = test system: Escherichia coli J2210
Escherichia coli JW0013 = test system: Escherichia coli JW0013
[9] = test system: Pseudomonas aeruginosa PAO1
[10] = test system: Porphyromonas gingivalis W50
[11] = test system: Escherichia coli DH5alpha
Escherichia coli C25 = test system: Escherichia coli C25
[12] = test system: Staphylococcus aureus ATCC 25923
[13] = test system: Listeria monocytogenes KCTC 19111
[14] = test system: Salmonella typhimurium KCTC 1926
[15] = test system: Escherichia coli ATCC 25922
[16] = test system: Pseudomonas aeruginosa ATCC 15692
[17] = test system: Staphylococcus epidermidis KCTC 1917
[18] = test system: Streptococcus pyogenes ATCC 49399
[19] = test system: Pseudomonas aeruginosa Ps4
Bacillus megaterium Bm11 = test system: Bacillus megaterium Bm11
[20] = test system: Staphylococcus aureus USA 100
[21] = test system: Klebsiella aerogenes ATCC 35029
[22] = test system: Pseudomonas aeruginosa ATCC 27853
[23] = test system: Candida albicans ATCC 90028
[24] = test system: Staphylococcus aureus USA 300
[25] = test system: Enterococcus faecalis ATCC 19433
[26] = test system: Staphylococcus aureus ATCC 6538P
[27] = test system: Pseudomonas aeruginosa ATCC 9027
[28] = test system: Enterobacter cloacae ATCC 49141
[29] = test system: Bacillus subtilis CMCC 63501
[30] = test system: Staphylococcus aureus ATCC 43300
Escherichia coli UB1005 = test system: Escherichia coli UB1005
[31] = test system: Staphylococcus epidermidis ATCC 12228
[32] = test system: Staphylococcus aureus ATCC 29213
[33] = test system: Salmonella enterica subsp. enterica serovar Pullorum C79-13
[34] = test system: Salmonella typhimurium ATCC 7731

MIC [1]: ≥ 73.3 µM
Compound: CC[C@H](C)[C@H](NC(=O)[C@H](CCCCN)NC(=O)[C@H](CCCCN)NC(=O)[C@@H](NC(=O)[C@@H](NC(=O)[C@H](CCCN=C(N)N)NC(=O)[C@H](CCCCN)NC(=O)[C@H](CCC(=O)O)NC(=O)CNC(=O)[C@H](C)N)[C@@H](C)CC)[C@@H](C)CC)C(=O)N[C@@H](CC(=O)O)C(=O)N[C@@H](CCC(=O)O)C(=O)N[C@@H](C)C(=O)N[C@@H](Cc1ccccc1)C(=O)N[C@@H](CCC(N)=O)C(=O)O [AGEKRIIKKIDEAFQ]

MIC [2]: 0.024 µM (≈ 0.0503 µg/mL) | MIC (Escherichia coli JJ2489): 0.031 µM (≈ 0.065 µg/mL) | MIC (Escherichia coli): 0.048 µM (≈ 0.101 µg/mL) | MIC [3]: 0.024 µM (≈ 0.0503 µg/mL) | MIC [4]: 0.096 µM (≈ 0.201 µg/mL) | MIC [5]: 0.031 µM (≈ 0.065 µg/mL) | MIC [6]: 0.024 µM (≈ 0.0503 µg/mL) | MIC [7]: 0.034 µM (≈ 0.0712 µg/mL) | MIC (Escherichia coli BW25113): 0.017 µM (≈ 0.0356 µg/mL) | MIC [8]: 0.024 µM (≈ 0.0503 µg/mL) | MIC (Escherichia coli MC1041): 0.024 µM (≈ 0.0503 µg/mL) | MIC (Escherichia coli J2210): 0.034 µM (≈ 0.0712 µg/mL) | MIC (Escherichia coli JW0013): 0.012 µM (≈ 0.0251 µg/mL)
Compound: CC(C)C[C@H](NC(=O)[C@H](CCCN=C(N)N)NC(=O)[C@@H]1CCCN1C(=O)[C@H](Cc1cnc[nH]1)NC(=O)[C@@H]1CCCN1C(=O)[C@@H]1CCCN1C(=O)[C@H](CCCN=C(N)N)NC(=O)[C@@H]1CCCN1C(=O)[C@H](CCC(N)=O)NC(=O)[C@@H]1CCCN1C(=O)[C@H](CCCCN)NC(=O)[C@H](Cc1ccc(O)cc1)NC(=O)[C@@H](NC(=O)[C@@H]1CCCN1C(=O)[C@H](CCCCN)NC(=O)[C@H](CC(N)=O)NC(=O)[C@H](CC(N)=O)NC(=O)CN)C(C)C)C(=O)O [GNNKPVYKPQPRPPHPRL]

MIC [9]: > 119 µM | MIC [10]: ≥ 119 µM | MIC [11]: ≥ 143 µM
Compound: CC[C@H](C)[C@H](NC(=O)[C@H](CCC(N)=O)NC(=O)CN)C(=O)N[C@H](C(=O)N[C@@H](CC(N)=O)C(=O)N[C@@H](CC(C)C)C(=O)N[C@@H](CCCCN)C(=O)N[C@@H](C)C(=O)N[C@@H](CO)C(=O)N[C@@H](CC(C)C)C(=O)N[C@@H](CC(=O)O)C(=O)N[C@@H](CC(C)C)C(=O)N[C@@H](CC(C)C)C(N)=O)[C@@H](C)CC [GQIINLKASLDLL]

MIC (Escherichia coli C25): ≥ 720 µM | MIC [12]: 180 µM (≈ 250 µg/mL)
Compound: CC[C@H](C)[C@H](NC(=O)CNC(=O)[C@H](CCCN=C(N)N)NC(=O)[C@H](Cc1ccc(O)cc1)NC(=O)[C@@H](NC(=O)[C@H](CCCN=C(N)N)NC(=O)[C@H](Cc1ccccc1)NC(=O)[C@H](Cc1c[nH]c2ccccc12)NC(=O)[C@@H](N)CCCCN)C(C)C)C(=O)N[C@@H](Cc1ccc(O)cc1)C(N)=O [KWFRVYRGIY]

MIC [13]: 8 µM (≈ 12.1 µg/mL) | MIC [14]: 16 µM (≈ 24.3 µg/mL) | MIC [15]: 4 µM (≈ 6.06 µg/mL) | MIC [12]: 64 µM (≈ 97 µg/mL) | MIC [16]: 4 µM (≈ 6.06 µg/mL) | MIC [17]: 8 µM (≈ 12.1 µg/mL)
Compound: NCCCC[C@H](NC(=O)CNC(=O)[C@H](Cc1c[nH]c2ccccc12)NC(=O)[C@H](CCCCN)NC(=O)[C@H](CCCCN)NC(=O)CNC(=O)[C@H](Cc1c[nH]c2ccccc12)NC(=O)[C@H](CCCCN)NC(=O)[C@H](CCCCN)NC(=O)CNC(=O)[C@H](Cc1c[nH]c2ccccc12)NC(=O)[C@@H](N)CCCCN)C(N)=O [KWGKKWGKKWGK]

MIC [18]: 2.5 µM (≈ 3.25 µg/mL) | MIC [9]: 24.6 µM (≈ 32 µg/mL) | MIC [19]: ≥ 48.1 µM | MIC (Bacillus megaterium Bm11): 1.25 µM (≈ 1.62 µg/mL) | MIC [20]: 12.5 µM (≈ 16.2 µg/mL) | MIC [21]: ≥ 40 µM | MIC [22]: 40 µM (≈ 51.9 µg/mL) | MIC [23]: ≥ 100 µM | MIC [24]: 12.5 µM (≈ 16.2 µg/mL) | MIC [25]: ≥ 40 µM | MIC [15]: 8.71 µM and 10 µM | MIC [26]: ≥ 40 µM | MIC [27]: 100 µM (≈ 130 µg/mL) | MIC [28]: ≥ 40 µM
Compound: CC[C@H](C)[C@H](NC(=O)[C@H](CCCN=C(N)N)NC(=O)[C@@H](NC(=O)[C@H](CCCN=C(N)N)NC(=O)[C@H](Cc1c[nH]c2ccccc12)NC(=O)[C@H](Cc1ccccc1)NC(=O)[C@@H]1CCCN1)[C@@H](C)CC)C(=O)N[C@@H](CCCN=C(N)N)C(=O)N[C@@H](CCCN=C(N)N)C(N)=O [PFWRIRIRR]

MIC [29]: 8 µM (≈ 25.5 µg/mL) | MIC [30]: 32 µM (≈ 102 µg/mL) | MIC (Escherichia coli UB1005): 2 µM (≈ 6.37 µg/mL) | MIC [22]: 2 µM (≈ 6.37 µg/mL) | MIC [31]: 32 µM (≈ 102 µg/mL) | MIC [32]: 32 µM (≈ 102 µg/mL) | MIC [33]: 2 µM (≈ 6.37 µg/mL) | MIC [34]: 8 µM (≈ 25.5 µg/mL)
Compound: CC(C)C[C@H](NC(=O)[C@H](CCCCN)NC(=O)[C@H](CCCCN)NC(=O)[C@H](C)NC(=O)[C@@H](NC(=O)[C@H](CCCCN)NC(=O)[C@H](CO)NC(=O)[C@H](CC(C)C)NC(=O)[C@H](Cc1c[nH]c2ccccc12)NC(=O)[C@H](CC(C)C)NC(=O)[C@H](CCCCN)NC(=O)[C@H](CCCCN)NC(=O)[C@H](C)NC(=O)[C@@H](NC(=O)[C@H](CCCCN)NC(=O)[C@H](CO)NC(=O)[C@H](CC(C)C)NC(=O)[C@H](Cc1c[nH]c2ccccc12)NC(=O)[C@H](CC(C)C)NC(=O)[C@H](CCCCN)NC(=O)[C@H](CCCCN)NC(=O)[C@H](C)NC(=O)[C@@H](NC(=O)[C@H](CCCCN)NC(=O)[C@H](CO)NC(=O)[C@H](CC(C)C)NC(=O)[C@@H](N)Cc1c[nH]c2ccccc12)[C@@H](C)O)[C@@H](C)O)[C@@H](C)O)C(N)=O [WLSKTAKKLWLSKTAKKLWLSKTAKKL]
